Data on 11 molecules can be found in ChEMBL document CHEMBL1201862, “PubChem BioAssay data set” (2004).

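Protocol summary: plate cells (96-well), add compound at 5 concentrations, incubate 48 h, interpolate endpoints linearly. GI50 is the concentration that inhibits growth by half.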 Calls of active or inactive are those of the source. Cut-off read from the data, not from the text of the source: active = GI50 up to about 1.1 µM and inactive = higher. Bounds are passed on as bounds.

Common to all, as to test: NCI tumour cell line growth inhibition, 48 h
In test [1] the test system is 786-0.
Test [2] deals with COLO 205.
Test [3] has as its system DU-145.
Test [4] has as its system HCT-15.
Test [5] deals with HL-60.
Test [6] concerns HT-29.
The test system of test [7] is KM12.
The subject of test [8] is M14.
In test [9] the test system is MCF7.
Test [10] deals with MDA-N.
Test [11] concerns NCI-H226.
Test [12] has as its system NCI-H522.
In test [13] the test system is OVCAR-4.
The subject of test [14] is SF-295.
Test [15] relates to SK-MEL-5.
Test [16] relates to SNB-75.
Test [17] concerns TK-10.
The subject of test [18] is UACC-257.
The subject of test [19] is MOLT-4.
Test [20] has as its system SF-539.

Consider `Cn1cnc([N+](=O)[O-])c1Sc1nc(N)nc2c1ncn2Cc1ccccc1`, for which the GI50 is 19 µM (inactive) in test [1]; 16.2 µM (inactive) in test [2]; 20.8 µM (inactive) in test [3]; 18 µM in test [4]; 18.9 µM (inactive) in [5]; 22.5 µM (inactive) in test [6]. Moreover, the GI50 is 30 µM (inactive) in [7]; 22.9 µM (inactive) in test [8]; 35.4 µM (inactive) in test [9]; 19.4 µM (inactive) in test [10]; 23.9 µM (inactive) in [11]; 10.2 µM (inactive) in test [12]. Moreover, the GI50 in test [13] is 20.8 µM (inactive); in test [14] it was 44.9 µM (inactive); in [15], 19 µM (inactive); in [16], 20.4 µM (inactive); in [17], 15.8 µM (inactive); in test [18], 14.3 µM (inactive).

Turning to `COc1ccc2c(c1)c(=O)c1c(NCCCN(C)CCCNc3ccc4c(=O)n(CCN(C)C)c(=O)n5c6ccc(OC)cc6c(=O)c3c45)ccc3c(=O)n(CCN(C)C)c(=O)n2c31`, the GI50 in [1] was < 0.01 µM (active); in [2], < 0.0473 µM (active); in [3], < 0.012 µM (active); in [4], < 0.0258 µM; in test [5], 0.0914 µM (active); in test [6], < 0.01 µM (active). For the same molecule, the GI50 in test [7] is < 0.01 µM (active); in [8] it was 0.594 µM (active); in [9], < 0.01 µM (active); in [10], 0.17 µM (active); in test [19], < 0.01 µM (active); in [11], < 0.01 µM (active). For the same molecule, the GI50 in [12] was < 0.0193 µM (active); in test [13], < 0.01 µM (active); in test [14], < 0.0169 µM (active); in test [20] it was 0.08 µM (active); in [16] it was < 0.0175 µM (active); in test [17], 0.119 µM (active). Moreover, in test [18], the GI50 was 0.352 µM (active).

With `CN(C)CCNC1=CC(=O)c2nc3ccccc3c3ccnc1c23`, the GI50 is 2.81 µM (inactive) in test [1]; 2.75 µM (inactive) in test [2]; 8.2 µM (inactive) in [3]; 3.23 µM in [4]; 3.83 µM (inactive) in test [5]; 2.58 µM (inactive) in test [6]. Also, the GI50 in test [7] was 3.34 µM (inactive); in test [8], 7.6 µM (inactive); in [9], 3.75 µM (inactive); in [10] it was 7.78 µM (inactive); in test [19], 2.48 µM (inactive); in test [11] it was 2.04 µM (inactive). Besides, the GI50 is 2.94 µM (inactive) in [12]; 3.57 µM (inactive) in [13]; 4.47 µM (inactive) in test [14]; 3.98 µM (inactive) in [20]; 13.1 µM (inactive) in test [16]; 8.2 µM (inactive) in test [17]. Further, the GI50 in [18] was 9.62 µM (inactive).

Regarding `COc1cc(NC(C)=O)ccc1C(=O)N/N=C/c1ccc(Cl)cc1Cl`, the GI50 was 24.9 µM (inactive) in [1]; > 100 µM (inactive) in test [2]; 26.3 µM (inactive) in test [3]; 83 µM in [4]; 46.6 µM (inactive) in [5]; > 100 µM (inactive) in test [6]. Further, the GI50 was 33 µM (inactive) in [7]; 48.1 µM (inactive) in [8]; 4.42 µM (inactive) in test [9]; 23.6 µM (inactive) in [10]; 73.8 µM (inactive) in test [19]; 77.1 µM (inactive) in test [11]. Also, the GI50 in test [12] is 45.2 µM (inactive); in test [13] it was 23.2 µM (inactive); in test [14] it was 57 µM (inactive); in test [20], 87.7 µM (inactive); in [15], 77.3 µM (inactive); in test [16], 13.6 µM (inactive). Besides, the GI50 in test [18] was 27 µM (inactive).

For the molecule `COc1cccc(CCn2c(N)c(C(=O)O)c3ccc([N+](=O)[O-])cc3c2=O)c1`, the GI50 in test [1] was 31.1 µM (inactive); in test [2], 20.7 µM (inactive); in [3], 40.2 µM (inactive); in test [4], 31.8 µM; in test [5], > 100 µM (inactive); in [6], 38.5 µM (inactive). For the same molecule, the GI50 in test [8] was 45.3 µM (inactive); in [9] it was 20.1 µM (inactive); in [10], 30.3 µM (inactive); in test [19], 54.1 µM (inactive); in [11], 44 µM (inactive); in test [12], 28.3 µM (inactive). For the same molecule, the GI50 in [13] was 54 µM (inactive); in test [14] it was 38.1 µM (inactive); in test [15], 24 µM (inactive); in test [16] it was 24.9 µM (inactive).

On to `Cc1cc2[nH]c3[nH]c(=O)[nH]c(=O)c3c2cc1C`, for which the GI50 was > 100 µM (inactive) in [1]; > 100 µM (inactive) in [2]; > 100 µM (inactive) in test [3]; > 100 µM in test [4]; > 10 µM (inactive) in test [5]; > 100 µM (inactive) in [6]. Further, the GI50 in test [7], in test [8], in [9], in [10], in test [11] and in test [12] was > 100 µM (inactive) in each case. The GI50 in [14] is > 100 µM (inactive); in test [20], > 100 µM (inactive); in test [15], 47.1 µM (inactive); in [16] it was > 100 µM (inactive); in test [17], > 100 µM (inactive); in [18], > 100 µM (inactive).

In the case of `N/C(=N\Nc1ccc(Cl)cc1)c1cnccn1`, the GI50 in test [1] is 68.7 µM (inactive); in [2], 18 µM (inactive); in test [3], > 100 µM (inactive); in test [4], 21.4 µM; in test [5] it was 3.48 µM (inactive); in [6], 32.3 µM (inactive). For the same molecule, the GI50 in test [7] is > 100 µM (inactive); in test [8], 6.64 µM (inactive); in test [9], 38.5 µM (inactive); in test [10] it was 10.4 µM (inactive); in [19], 39.8 µM (inactive); in [11], 48.8 µM (inactive). The GI50 is 28.3 µM (inactive) in test [12]; 29.1 µM (inactive) in test [13]; 13.2 µM (inactive) in [14]; 21.1 µM (inactive) in test [15]; > 100 µM (inactive) in test [16]; > 100 µM (inactive) in test [17]. Moreover, in test [18], the GI50 is 28.3 µM (inactive).

With `NCCSS(=O)(=O)CCN`, the GI50 in test [1] is > 100 µM (inactive); in test [2], > 100 µM (inactive); in [3], > 100 µM (inactive); in [4], > 100 µM; in test [5], > 100 µM (inactive); in [6], > 100 µM (inactive). For the same molecule, the GI50 in test [7], in test [8], in test [9], in test [10], in test [19] and in test [11] was > 100 µM (inactive) throughout. The GI50 in [12], in [13], in test [14], in test [20], in [15] and in test [16] was > 100 µM (inactive) in each case. Also, the GI50 in test [17] was > 100 µM (inactive).

With `O=c1[nH]cnc2c1ncn2[C@@H]1C[C@H]1CO`, the GI50 in [1] is > 100 µM (inactive); in test [2], > 100 µM (inactive); in test [3], > 100 µM (inactive); in [4] it was > 100 µM; in [5], > 100 µM (inactive); in test [6], > 100 µM (inactive). Besides, the GI50 in test [7], in test [8], in test [9], in test [10], in [19] and in test [11] was > 100 µM (inactive) each time. Besides, the GI50 in test [12], in test [13], in test [20], in [15], in [16] and in test [17] was > 100 µM (inactive) in each case. The GI50 in [18] was > 100 µM (inactive).

Regarding `N=C(N)Nc1nc2cc([N+](=O)[O-])ccc2[nH]1`, the GI50 in [1] is > 100 µM (inactive); in test [2], > 100 µM (inactive); in [3] it was > 100 µM (inactive); in test [4], > 100 µM; in test [5] it was > 100 µM (inactive); in test [6], > 100 µM (inactive). Further, the GI50 was 37.3 µM (inactive) in [7]; > 100 µM (inactive) in test [8]; 48.5 µM (inactive) in test [9]; > 100 µM (inactive) in test [10]; > 100 µM (inactive) in [19]; > 100 µM (inactive) in test [11]. Also, the GI50 was 68.5 µM (inactive) in test [12]; > 100 µM (inactive) in test [13]; 66.2 µM (inactive) in test [14]; 56.6 µM (inactive) in test [20]; 83 µM (inactive) in test [15]; 22.1 µM (inactive) in [16]. Further, the figures for the GI50 in test [17] and in test [18] were 81.8 µM (inactive) and 80.2 µM (inactive), respectively.

`C=C(C)[C@H]1C2=CC(C)=C(O2)[C@@H](O)[C@H](C(=C)C)CCC2=C[C@H]1OC2=O` [KALLOLIDE A]: the GI50 is > 100 µM (inactive) in [1]; > 100 µM (inactive) in [2]; > 100 µM (inactive) in test [3]; > 100 µM in test [4]; > 100 µM (inactive) in [5]; > 100 µM (inactive) in test [7]. For the same molecule, the GI50 in test [8] is > 100 µM (inactive); in test [9], > 100 µM (inactive); in test [10], > 100 µM (inactive); in [19], > 100 µM (inactive); in [11] it was > 100 µM (inactive); in test [12], 87.7 µM (inactive). Moreover, the GI50 in test [13], in test [14], in test [20], in [15], in [16] and in test [17] was > 100 µM (inactive) each time. In test [18], the GI50 is > 100 µM (inactive).
